This test concerns the target PDE V (Homo sapiens, UniProt O76074). The test can be described thus: PDE V enzyme inhibition (PDE V IC50). The test is classed as biochemical.

The record followed here is patent publication US7531544B2, “Xanthine phosphodiesterase V inhibitors” (Schering Corporation, priority 2000, dated 2009).

The term IC50 denotes the concentration that inhibits the measured activity by half. A high value points to weaker potency.

Compound `COc1ccc(Cn2c(NC3CCCC3CO)nc3c2c(=O)n(C)c(=O)n3C)cc1` (centres unmarked) [Compound 13] came in with an IC50 of 0.015 to 0.1 µM.

In turn, `COc1ccc(Cn2c(N[C@@H]3CCc4ccccc43)nc3c2c(=O)n(C)c(=O)n3C)cc1` [Compound 95] had an IC50 of 0.005 to 0.01 µM.
